System: 966289-007-R4-J1-PDC complex spheroid viability
Assay: Anticancer human tumor 966289-007-R4-J1-PDC patient-derived pancreatic adenocarcinoma cell line growth inhibition [GQUAD]
Conditions: for IC50: curve of first compound; for viability, T/C: stronger effect = lower value
Outline: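 Viability of tumor cells grown as complex spheroids with endothelial and stromal cells, exposed to drug combinations. Top concentration at or near clinical Cmax (else 10 microM), diluted in half-log increments.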

[1] = second compound 0.0316 µM, first compound 0.0316 µM
[2] = second compound 0.0316 µM, first compound 0.1 µM
[3] = second compound 0.0316 µM, first compound 0.316 µM
[4] = second compound 0.0316 µM, first compound 1 µM
[5] = second compound 0.0316 µM, first compound 3.16 µM
[6] = second compound 0.0316 µM, first compound 10 µM
[7] = second compound 0.1 µM, first compound 0.0316 µM
[8] = second compound 0.1 µM, first compound 0.1 µM
[9] = second compound 0.1 µM, first compound 0.316 µM
[10] = second compound 0.1 µM, first compound 1 µM
[11] = second compound 0.1 µM, first compound 3.16 µM
[12] = second compound 0.1 µM, first compound 10 µM
[13] = second compound 0.316 µM, first compound 0.0316 µM
[14] = second compound 0.316 µM, first compound 0.1 µM
[15] = second compound 0.316 µM, first compound 0.316 µM
[16] = second compound 0.316 µM, first compound 1 µM
[17] = second compound 0.316 µM, first compound 3.16 µM
[18] = second compound 0.316 µM, first compound 10 µM
[19] = second compound 1 µM, first compound 0.0316 µM
[20] = second compound 1 µM, first compound 0.1 µM
[21] = second compound 1 µM, first compound 0.316 µM
[22] = second compound 1 µM, first compound 1 µM
[23] = second compound 1 µM, first compound 3.16 µM
[24] = second compound 1 µM, first compound 10 µM
[25] = second compound 3.16 µM, first compound 0.0316 µM
[26] = second compound 3.16 µM, first compound 0.1 µM
[27] = second compound 3.16 µM, first compound 0.316 µM
[28] = second compound 3.16 µM, first compound 1 µM
[29] = second compound 3.16 µM, first compound 3.16 µM
[30] = second compound 3.16 µM, first compound 10 µM
[31] = second compound 10 µM, first compound 0.0316 µM
[32] = second compound 10 µM, first compound 0.1 µM
[33] = second compound 10 µM, first compound 0.316 µM
[34] = second compound 10 µM, first compound 1 µM
[35] = second compound 10 µM, first compound 3.16 µM
[36] = second compound 10 µM, first compound 10 µM
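Also: spheroids exposed to the agents for seven days before readout.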
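For viability, T/C in this document: percent viability relative to DMSO vehicle control wells taken as 100%.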

Q: `CC(C)(O)C1CCC(Nc2ccc3ncc(-c4cccc(C(F)(F)F)c4)n3n2)CC1` (stereo not drawn) + Cc1[nH]c2ccc(F)cc2c1-c1nc2c3cccnc3c3ncccc3c2[nH]1 was tested. Which IC50 (second compound 0.0316 µM) did it give?
A: > 10000 nM

Q: What about the IC50 (second compound 0.1 µM) of the same compound?
A: 3110 nM

Q: What about the IC50 (second compound 0.316 µM) of the same compound?
A: 2960 nM

Q: What about the IC50 (second compound 1 µM) of the same compound?
A: 2470 nM

Q: What about the IC50 (second compound 3.16 µM) of the same compound?
A: 2500 nM

Q: And the IC50 (second compound 10 µM)?
A: 2370 nM

Q: What about the viability, T/C [1] of the same compound?
A: 108%

Q: And the viability, T/C [2]?
A: 105%

Q: And the viability, T/C [3]?
A: 109%

Q: And the viability, T/C [4]?
A: 89%

Q: And the viability, T/C [5]?
A: 71.7%

Q: What about the viability, T/C [6] of the same compound?
A: 55.3%

Q: And the viability, T/C [7]?
A: 104%

Q: What about the viability, T/C [8] of the same compound?
A: 100%

Q: And the viability, T/C [9]?
A: 99.8%

Q: And the viability, T/C [10]?
A: 93.2%

Q: What about the viability, T/C [11] of the same compound?
A: 47.5%

Q: What about the viability, T/C [12] of the same compound?
A: 51.3%

Q: And the viability, T/C [13]?
A: 101%

Q: And the viability, T/C [14]?
A: 111%

Q: What about the viability, T/C [15] of the same compound?
A: 102%

Q: What about the viability, T/C [16] of the same compound?
A: 105%

Q: What about the viability, T/C [17] of the same compound?
A: 40.7%

Q: What about the viability, T/C [18] of the same compound?
A: 52.6%

Q: And the viability, T/C [19]?
A: 106%

Q: What about the viability, T/C [20] of the same compound?
A: 106%

Q: What about the viability, T/C [21] of the same compound?
A: 98.9%

Q: And the viability, T/C [22]?
A: 110%

Q: What about the viability, T/C [23] of the same compound?
A: 28.9%

Q: What about the viability, T/C [24] of the same compound?
A: 41%

Q: And the viability, T/C [25]?
A: 104%

Q: And the viability, T/C [26]?
A: 107%

Q: What about the viability, T/C [27] of the same compound?
A: 113%

Q: And the viability, T/C [28]?
A: 113%

Q: And the viability, T/C [29]?
A: 22.5%

Q: What about the viability, T/C [30] of the same compound?
A: 47.1%

Q: And the viability, T/C [31]?
A: 97.1%

Q: And the viability, T/C [32]?
A: 111%

Q: What about the viability, T/C [33] of the same compound?
A: 112%

Q: What about the viability, T/C [34] of the same compound?
A: 109%

Q: What about the viability, T/C [35] of the same compound?
A: 26.2%

Q: And the viability, T/C [36]?
A: 35.4%

Q: Which results are given for `COc1ncnc(C2CC2)c1-c1ncc2cnn(Cc3ccc(-c4nc(C(F)(F)F)cn4C(C)C)cc3)c2n1` + Cc1[nH]c2ccc(F)cc2c1-c1nc2c3cccnc3c3ncccc3c2[nH]1?
A: IC50 (second compound 0.0316 µM): > 10000 nM; IC50 (second compound 0.1 µM): > 10000 nM; IC50 (second compound 0.316 µM): > 10000 nM; IC50 (second compound 1 µM): > 10000 nM; IC50 (second compound 3.16 µM): > 10000 nM; IC50 (second compound 10 µM): > 10000 nM; viability, T/C [1]: 106%; viability, T/C [2]: 99.2%; viability, T/C [3]: 104%; viability, T/C [4]: 99.7%; viability, T/C [5]: 104%; viability, T/C [6]: 107%; viability, T/C [7]: 106%; viability, T/C [8]: 105%; viability, T/C [9]: 104%; viability, T/C [10]: 99.6%; viability, T/C [11]: 100%; viability, T/C [12]: 107%; viability, T/C [13]: 101%; viability, T/C [14]: 99.8%; viability, T/C [15]: 107%; viability, T/C [16]: 100%; viability, T/C [17]: 102%; viability, T/C [18]: 96.5%; viability, T/C [19]: 98.2%; viability, T/C [20]: 105%; viability, T/C [21]: 107%; viability, T/C [22]: 104%; viability, T/C [23]: 108%; viability, T/C [24]: 110%; viability, T/C [25]: 107%; viability, T/C [26]: 106%; viability, T/C [27]: 108%; viability, T/C [28]: 108%; viability, T/C [29]: 109%; viability, T/C [30]: 110%; viability, T/C [31]: 107%; viability, T/C [32]: 104%; viability, T/C [33]: 109%; viability, T/C [34]: 104%; viability, T/C [35]: 111%; viability, T/C [36]: 111%

Q: With `Cc1[nH]c2ccccc2c1CCNCc1ccc(/C=C/C(=O)NO)cc1` + Cc1[nH]c2ccc(F)cc2c1-c1nc2c3cccnc3c3ncccc3c2[nH]1 as the compound, how does the IC50 (second compound 0.0316 µM) read?
A: 76 nM

Q: What about the IC50 (second compound 0.1 µM) of the same compound?
A: 92.8 nM

Q: What about the IC50 (second compound 0.316 µM) of the same compound?
A: 95.8 nM

Q: And the IC50 (second compound 1 µM)?
A: 127 nM

Q: What about the IC50 (second compound 3.16 µM) of the same compound?
A: 79.7 nM

Q: And the IC50 (second compound 10 µM)?
A: 104 nM

Q: And the viability, T/C (second compound 0.0316 µM, first compound 0.000999 µM)?
A: 110%

Q: What about the viability, T/C (second compound 0.0316 µM, first compound 0.00316 µM) of the same compound?
A: 104%

Q: What about the viability, T/C (second compound 0.0316 µM, first compound 0.00999 µM) of the same compound?
A: 107%

Q: What about the viability, T/C [1] of the same compound?
A: 103%

Q: And the viability, T/C (second compound 0.0316 µM, first compound 0.0999 µM)?
A: 33.6%

Q: And the viability, T/C [3]?
A: 4.95%

Q: What about the viability, T/C (second compound 0.1 µM, first compound 0.000999 µM) of the same compound?
A: 111%

Q: What about the viability, T/C (second compound 0.1 µM, first compound 0.00316 µM) of the same compound?
A: 109%

Q: And the viability, T/C (second compound 0.1 µM, first compound 0.00999 µM)?
A: 111%

Q: What about the viability, T/C [7] of the same compound?
A: 105%

Q: What about the viability, T/C (second compound 0.1 µM, first compound 0.0999 µM) of the same compound?
A: 46.2%

Q: And the viability, T/C [9]?
A: 5.29%

Q: What about the viability, T/C (second compound 0.316 µM, first compound 0.000999 µM) of the same compound?
A: 106%

Q: And the viability, T/C (second compound 0.316 µM, first compound 0.00316 µM)?
A: 108%

Q: And the viability, T/C (second compound 0.316 µM, first compound 0.00999 µM)?
A: 113%

Q: And the viability, T/C [13]?
A: 107%

Q: What about the viability, T/C (second compound 0.316 µM, first compound 0.0999 µM) of the same compound?
A: 47.8%

Q: What about the viability, T/C [15] of the same compound?
A: 6.15%

Q: What about the viability, T/C (second compound 1 µM, first compound 0.000999 µM) of the same compound?
A: 98.5%

Q: And the viability, T/C (second compound 1 µM, first compound 0.00316 µM)?
A: 103%

Q: And the viability, T/C (second compound 1 µM, first compound 0.00999 µM)?
A: 111%

Q: What about the viability, T/C [19] of the same compound?
A: 108%

Q: What about the viability, T/C (second compound 1 µM, first compound 0.0999 µM) of the same compound?
A: 61.5%

Q: What about the viability, T/C [21] of the same compound?
A: 5.78%

Q: What about the viability, T/C (second compound 3.16 µM, first compound 0.000999 µM) of the same compound?
A: 107%

Q: What about the viability, T/C (second compound 3.16 µM, first compound 0.00316 µM) of the same compound?
A: 114%

Q: And the viability, T/C (second compound 3.16 µM, first compound 0.00999 µM)?
A: 117%

Q: What about the viability, T/C [25] of the same compound?
A: 110%

Q: What about the viability, T/C (second compound 3.16 µM, first compound 0.0999 µM) of the same compound?
A: 35.4%

Q: What about the viability, T/C [27] of the same compound?
A: 5.51%

Q: What about the viability, T/C (second compound 10 µM, first compound 0.000999 µM) of the same compound?
A: 110%

Q: What about the viability, T/C (second compound 10 µM, first compound 0.00316 µM) of the same compound?
A: 104%

Q: What about the viability, T/C (second compound 10 µM, first compound 0.00999 µM) of the same compound?
A: 114%

Q: And the viability, T/C [31]?
A: 93.5%

Q: And the viability, T/C (second compound 10 µM, first compound 0.0999 µM)?
A: 52.2%

Q: What about the viability, T/C [33] of the same compound?
A: 5.13%

Q: What does the source list for `O=C(NO)c1cnc(N2CCN(S(=O)(=O)c3ccc4ccccc4c3)CC2)nc1` + Cc1[nH]c2ccc(F)cc2c1-c1nc2c3cccnc3c3ncccc3c2[nH]1?
A: IC50 (second compound 0.0316 µM): 682 nM; IC50 (second compound 0.1 µM): 847 nM; IC50 (second compound 0.316 µM): 1170 nM; IC50 (second compound 1 µM): 1250 nM; IC50 (second compound 3.16 µM): 943 nM; IC50 (second compound 10 µM): 948 nM; viability, T/C [1]: 100%; viability, T/C [2]: 96.8%; viability, T/C [3]: 112%; viability, T/C [4]: 23.5%; viability, T/C [5]: 1.82%; viability, T/C [6]: 0.49%; viability, T/C [7]: 104%; viability, T/C [8]: 97.4%; viability, T/C [9]: 110%; viability, T/C [10]: 41%; viability, T/C [11]: 1.2%; viability, T/C [12]: 0.14%; viability, T/C [13]: 103%; viability, T/C [14]: 97.2%; viability, T/C [15]: 110%; viability, T/C [16]: 57.5%; viability, T/C [17]: 3.37%; viability, T/C [18]: 0.12%; viability, T/C [19]: 94.7%; viability, T/C [20]: 102%; viability, T/C [21]: 115%; viability, T/C [22]: 61.3%; viability, T/C [23]: 4.62%; viability, T/C [24]: 0.3%; viability, T/C [25]: 101%; viability, T/C [26]: 111%; viability, T/C [27]: 111%; viability, T/C [28]: 46.9%; viability, T/C [29]: 3.24%; viability, T/C [30]: 0.41%; viability, T/C [31]: 112%; viability, T/C [32]: 104%; viability, T/C [33]: 115%; viability, T/C [34]: 47.1%; viability, T/C [35]: 2.05%; viability, T/C [36]: 0.25%

Source: PubChem BioAssay AID2060488 (Molecular Pharmacology Branch, DTP, NCI, 2025)
